This is an account of results in article PMC11219871, “Epigenetic-based differentiation therapy for Acute Myeloid Leukemia” (Nature Communications, 2024).

Structures are written as SMILES.

What all share (experiment): Epigenetic panel (BPS Bioscience)
Common to all, as to format: biochemical

One experiment addresses T1, EZH2 (P132S) (Homo sapiens, UniProt Q15910, P132S).
T1 construct: purchased BPS Bioscience; Eurofins (HDAC4, 5, 7-11)
The source says:
(§1) The selectivity of CM-444 and CM-1758 against other epigenetic targets, including histone demethylase (JMJD2A, JMJD2B, JMJD2C, JMJD2D, JMJD2E, JMJD3, JMJD1A, LSD1, Jarid1A, Jarid1B, Jarid1C, FBXL10, FBXL11, JHDM1D, JMJD1B, PHF8, LSD2 and UTX); histone acetyltransferases (GCN5, P300); histone methyltransferases (G9a, GLP, MLL1, SET7/9, SUV39H1, SUV39H2, PRMT1, PRMT3, PRMT4, PRMT5, PRMT6, PRMT8, PRMT9, NSD1, NSD2, EZH1, EZH2, SETDB1, SETD2, SET8, SUV4-20H1, SMYD2, SMYD3, DOT1L, EZH2 (A677G), EZH2 (A677G), EZH2 (A738T), EZH2 (Y641S), EZH2 (P132S), EZH2 (Y641C), EZH2 (Y641F), EZH2 (Y641H), EZH2 (Y641N)); bromodomains (ATAD2B, ATAD2A, BRD1, BRD9, BPTF/FALZ, CeCR2, BRPF3, BRD3 (BD1 + BD2), BAZ2B, WDR9, TAF1 (BD2), TAF1L (BD2), TAF1L (BD1 + BD2), BRD2 (BD1), BRD2 (BD2), BRD2 (BD1 + BD2), BRD3 (BD1), BRD3 (BD2), BRD4 (BD1), BRD4 (BD2), BRD4 (BD1 + BD2), BRDT (BD1), BRDT (BD1 + BD2), CREBBP, SMARCA2A, SMARCA4/BRG1); DNA methyltranferases (DNMT1, DNMT3A/3L and DNMT3B/3L), and sirtuin histone deacetylases (SIRT1, SIRT2, SIRT3, SIRT5 and SIRT6), were determined by BPS Bioscience (http://www.bpsbioscience.com/index.ph). Binding experiments were performed in duplicate at a concentration of 10 μM.

In a further experiment the target is T2, EZH2 (Y641C) (Homo sapiens, UniProt Q15910, Y641C).
T2 construct: purchased BPS Bioscience; Eurofins (HDAC4, 5, 7-11)
From the text: as §1

A further experiment addresses T3, FBXL10 (Homo sapiens, UniProt Q8NHM5).
T3 construct: purchased BPS Bioscience (contracted assay service)
T3 sequence (Q8NHM5 1-1336): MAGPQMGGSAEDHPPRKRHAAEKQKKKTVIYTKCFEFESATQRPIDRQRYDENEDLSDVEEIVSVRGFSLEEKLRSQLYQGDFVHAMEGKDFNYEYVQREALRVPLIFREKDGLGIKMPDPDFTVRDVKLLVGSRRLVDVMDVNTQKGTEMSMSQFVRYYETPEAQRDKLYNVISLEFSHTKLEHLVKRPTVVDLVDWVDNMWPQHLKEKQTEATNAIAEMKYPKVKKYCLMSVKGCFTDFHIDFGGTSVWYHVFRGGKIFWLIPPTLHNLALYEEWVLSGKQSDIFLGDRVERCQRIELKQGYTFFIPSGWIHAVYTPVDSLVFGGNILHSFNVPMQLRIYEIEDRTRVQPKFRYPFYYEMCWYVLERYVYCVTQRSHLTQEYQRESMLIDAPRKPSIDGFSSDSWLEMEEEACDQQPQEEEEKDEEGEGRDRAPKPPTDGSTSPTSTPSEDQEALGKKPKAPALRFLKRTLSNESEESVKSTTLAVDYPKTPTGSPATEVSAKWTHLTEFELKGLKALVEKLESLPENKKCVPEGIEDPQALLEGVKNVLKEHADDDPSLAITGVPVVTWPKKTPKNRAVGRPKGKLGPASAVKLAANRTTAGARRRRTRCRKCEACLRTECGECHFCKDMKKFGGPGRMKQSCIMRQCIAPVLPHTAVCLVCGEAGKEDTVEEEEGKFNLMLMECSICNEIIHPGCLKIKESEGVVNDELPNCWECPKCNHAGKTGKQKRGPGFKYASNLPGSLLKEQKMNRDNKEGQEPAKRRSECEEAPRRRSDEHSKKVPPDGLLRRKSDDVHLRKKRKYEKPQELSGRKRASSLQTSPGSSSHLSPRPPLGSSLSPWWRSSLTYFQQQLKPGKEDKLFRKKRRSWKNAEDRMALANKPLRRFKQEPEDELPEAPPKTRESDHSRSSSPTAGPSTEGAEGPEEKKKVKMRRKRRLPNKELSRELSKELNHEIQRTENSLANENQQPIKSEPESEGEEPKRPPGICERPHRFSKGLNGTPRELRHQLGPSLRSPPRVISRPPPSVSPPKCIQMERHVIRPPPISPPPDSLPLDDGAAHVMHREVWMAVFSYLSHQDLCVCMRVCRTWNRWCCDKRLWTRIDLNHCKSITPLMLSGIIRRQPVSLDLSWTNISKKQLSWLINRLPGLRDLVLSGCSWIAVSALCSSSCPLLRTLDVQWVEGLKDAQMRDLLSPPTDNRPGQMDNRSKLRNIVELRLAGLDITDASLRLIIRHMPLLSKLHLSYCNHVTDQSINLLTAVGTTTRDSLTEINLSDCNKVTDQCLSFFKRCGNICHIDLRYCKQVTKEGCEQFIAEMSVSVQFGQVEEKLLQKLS
From the text: as §1

In another experiment the target is T4, GLP (Homo sapiens, UniProt Q9H9B1).
T4 construct: purchased BPS Bioscience; Eurofins (HDAC4, 5, 7-11)
From the text: as §1

The next experiment deals with T5, JHDM1D (Homo sapiens, UniProt Q6ZMT4).
T5 construct: purchased BPS Bioscience; Eurofins (HDAC4, 5, 7-11)
From the text: as §1

A further experiment deals with T6, JMJD2A (Homo sapiens, UniProt O75164).
T6 construct: purchased BPS Bioscience; Eurofins (HDAC4, 5, 7-11)
From the text: as §1

Another experiment has as its target T7, Jarid1C (Homo sapiens, UniProt P41229).
T7 construct: purchased BPS Bioscience; Eurofins (HDAC4, 5, 7-11)
From the text: as §1

A further experiment addresses T8, LSD2 (Homo sapiens, UniProt Q8NB78).
T8 construct: purchased BPS Bioscience; Eurofins (HDAC4, 5, 7-11)
From the text: as §1

The next experiment addresses T9, PHF8 (Homo sapiens, UniProt Q9UPP1).
T9 construct: purchased BPS Bioscience; Eurofins (HDAC4, 5, 7-11)
From the text: as §1

A further experiment has as its target T10, PRMT3 (Homo sapiens, UniProt O60678).
T10 construct: purchased BPS Bioscience; Eurofins (HDAC4, 5, 7-11)
From the text: as §1

In the next experiment the target is T11, PRMT6 (Homo sapiens, UniProt Q96LA8).
T11 construct: purchased BPS Bioscience; Eurofins (HDAC4, 5, 7-11)
From the text: as §1

The next experiment deals with T12, SETDB1 (Homo sapiens, UniProt Q15047).
T12 construct: purchased BPS Bioscience; Eurofins (HDAC4, 5, 7-11)
From the text: as §1

In the next experiment the target is T13, SIRT2 (Homo sapiens, UniProt Q8IXJ6).
T13 construct: purchased BPS Bioscience; Eurofins (HDAC4, 5, 7-11)
From the text: as §1

T5 sequence (Q6ZMT4 whole entry): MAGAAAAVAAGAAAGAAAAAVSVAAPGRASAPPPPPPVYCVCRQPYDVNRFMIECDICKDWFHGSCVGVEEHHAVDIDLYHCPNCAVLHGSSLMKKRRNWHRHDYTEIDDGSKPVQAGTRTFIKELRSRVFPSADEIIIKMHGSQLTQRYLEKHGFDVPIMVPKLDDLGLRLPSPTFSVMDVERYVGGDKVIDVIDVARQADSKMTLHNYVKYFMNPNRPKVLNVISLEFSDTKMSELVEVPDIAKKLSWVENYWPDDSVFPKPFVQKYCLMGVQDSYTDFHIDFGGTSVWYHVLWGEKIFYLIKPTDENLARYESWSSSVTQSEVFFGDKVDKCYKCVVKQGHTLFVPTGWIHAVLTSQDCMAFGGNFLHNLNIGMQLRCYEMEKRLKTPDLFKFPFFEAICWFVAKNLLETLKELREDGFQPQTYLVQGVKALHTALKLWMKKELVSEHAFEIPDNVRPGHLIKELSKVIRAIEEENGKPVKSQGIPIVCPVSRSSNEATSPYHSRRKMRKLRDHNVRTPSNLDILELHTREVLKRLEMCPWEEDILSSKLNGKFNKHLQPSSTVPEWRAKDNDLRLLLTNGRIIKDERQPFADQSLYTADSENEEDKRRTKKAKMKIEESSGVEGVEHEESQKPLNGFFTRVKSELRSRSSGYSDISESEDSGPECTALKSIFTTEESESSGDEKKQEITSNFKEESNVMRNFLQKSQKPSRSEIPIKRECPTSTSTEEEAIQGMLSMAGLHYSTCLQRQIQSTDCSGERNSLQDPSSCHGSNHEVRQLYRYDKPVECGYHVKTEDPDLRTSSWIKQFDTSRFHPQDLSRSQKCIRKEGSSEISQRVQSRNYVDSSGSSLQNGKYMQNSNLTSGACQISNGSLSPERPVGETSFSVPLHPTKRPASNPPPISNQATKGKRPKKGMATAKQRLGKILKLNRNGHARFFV
T10 sequence (O60678 whole entry): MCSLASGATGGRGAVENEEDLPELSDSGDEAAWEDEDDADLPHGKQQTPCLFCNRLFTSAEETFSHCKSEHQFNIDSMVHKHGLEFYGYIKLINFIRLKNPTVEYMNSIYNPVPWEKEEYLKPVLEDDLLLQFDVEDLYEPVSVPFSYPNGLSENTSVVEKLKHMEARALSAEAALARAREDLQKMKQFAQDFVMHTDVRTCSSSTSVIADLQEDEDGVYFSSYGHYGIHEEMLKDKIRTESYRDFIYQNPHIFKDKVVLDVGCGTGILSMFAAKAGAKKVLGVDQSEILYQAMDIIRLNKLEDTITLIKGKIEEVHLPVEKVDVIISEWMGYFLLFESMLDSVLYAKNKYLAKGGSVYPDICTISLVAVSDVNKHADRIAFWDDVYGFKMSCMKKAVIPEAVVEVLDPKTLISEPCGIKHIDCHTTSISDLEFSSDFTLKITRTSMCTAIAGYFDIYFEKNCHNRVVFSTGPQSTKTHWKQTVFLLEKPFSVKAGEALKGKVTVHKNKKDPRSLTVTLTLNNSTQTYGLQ
T11 sequence (Q96LA8 whole entry): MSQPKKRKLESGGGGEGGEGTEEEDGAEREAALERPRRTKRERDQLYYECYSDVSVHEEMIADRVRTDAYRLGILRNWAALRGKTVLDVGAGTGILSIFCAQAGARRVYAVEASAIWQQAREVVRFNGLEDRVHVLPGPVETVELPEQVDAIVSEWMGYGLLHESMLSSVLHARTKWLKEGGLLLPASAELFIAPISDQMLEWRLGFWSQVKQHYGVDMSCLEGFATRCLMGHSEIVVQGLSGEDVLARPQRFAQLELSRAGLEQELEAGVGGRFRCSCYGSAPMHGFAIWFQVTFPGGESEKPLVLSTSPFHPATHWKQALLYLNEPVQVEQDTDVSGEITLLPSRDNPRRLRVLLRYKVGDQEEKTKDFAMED
T13 sequence (Q8IXJ6 whole entry): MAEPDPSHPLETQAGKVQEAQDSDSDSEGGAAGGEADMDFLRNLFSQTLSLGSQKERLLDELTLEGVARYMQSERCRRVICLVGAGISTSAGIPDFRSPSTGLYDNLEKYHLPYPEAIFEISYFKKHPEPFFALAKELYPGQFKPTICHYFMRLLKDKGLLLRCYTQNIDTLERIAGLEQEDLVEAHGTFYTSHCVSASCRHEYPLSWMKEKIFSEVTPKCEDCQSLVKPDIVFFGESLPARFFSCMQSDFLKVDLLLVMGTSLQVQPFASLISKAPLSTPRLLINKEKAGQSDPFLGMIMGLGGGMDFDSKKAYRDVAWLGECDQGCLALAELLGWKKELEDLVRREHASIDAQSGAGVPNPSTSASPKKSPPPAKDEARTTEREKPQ
T7 sequence (P41229 whole entry): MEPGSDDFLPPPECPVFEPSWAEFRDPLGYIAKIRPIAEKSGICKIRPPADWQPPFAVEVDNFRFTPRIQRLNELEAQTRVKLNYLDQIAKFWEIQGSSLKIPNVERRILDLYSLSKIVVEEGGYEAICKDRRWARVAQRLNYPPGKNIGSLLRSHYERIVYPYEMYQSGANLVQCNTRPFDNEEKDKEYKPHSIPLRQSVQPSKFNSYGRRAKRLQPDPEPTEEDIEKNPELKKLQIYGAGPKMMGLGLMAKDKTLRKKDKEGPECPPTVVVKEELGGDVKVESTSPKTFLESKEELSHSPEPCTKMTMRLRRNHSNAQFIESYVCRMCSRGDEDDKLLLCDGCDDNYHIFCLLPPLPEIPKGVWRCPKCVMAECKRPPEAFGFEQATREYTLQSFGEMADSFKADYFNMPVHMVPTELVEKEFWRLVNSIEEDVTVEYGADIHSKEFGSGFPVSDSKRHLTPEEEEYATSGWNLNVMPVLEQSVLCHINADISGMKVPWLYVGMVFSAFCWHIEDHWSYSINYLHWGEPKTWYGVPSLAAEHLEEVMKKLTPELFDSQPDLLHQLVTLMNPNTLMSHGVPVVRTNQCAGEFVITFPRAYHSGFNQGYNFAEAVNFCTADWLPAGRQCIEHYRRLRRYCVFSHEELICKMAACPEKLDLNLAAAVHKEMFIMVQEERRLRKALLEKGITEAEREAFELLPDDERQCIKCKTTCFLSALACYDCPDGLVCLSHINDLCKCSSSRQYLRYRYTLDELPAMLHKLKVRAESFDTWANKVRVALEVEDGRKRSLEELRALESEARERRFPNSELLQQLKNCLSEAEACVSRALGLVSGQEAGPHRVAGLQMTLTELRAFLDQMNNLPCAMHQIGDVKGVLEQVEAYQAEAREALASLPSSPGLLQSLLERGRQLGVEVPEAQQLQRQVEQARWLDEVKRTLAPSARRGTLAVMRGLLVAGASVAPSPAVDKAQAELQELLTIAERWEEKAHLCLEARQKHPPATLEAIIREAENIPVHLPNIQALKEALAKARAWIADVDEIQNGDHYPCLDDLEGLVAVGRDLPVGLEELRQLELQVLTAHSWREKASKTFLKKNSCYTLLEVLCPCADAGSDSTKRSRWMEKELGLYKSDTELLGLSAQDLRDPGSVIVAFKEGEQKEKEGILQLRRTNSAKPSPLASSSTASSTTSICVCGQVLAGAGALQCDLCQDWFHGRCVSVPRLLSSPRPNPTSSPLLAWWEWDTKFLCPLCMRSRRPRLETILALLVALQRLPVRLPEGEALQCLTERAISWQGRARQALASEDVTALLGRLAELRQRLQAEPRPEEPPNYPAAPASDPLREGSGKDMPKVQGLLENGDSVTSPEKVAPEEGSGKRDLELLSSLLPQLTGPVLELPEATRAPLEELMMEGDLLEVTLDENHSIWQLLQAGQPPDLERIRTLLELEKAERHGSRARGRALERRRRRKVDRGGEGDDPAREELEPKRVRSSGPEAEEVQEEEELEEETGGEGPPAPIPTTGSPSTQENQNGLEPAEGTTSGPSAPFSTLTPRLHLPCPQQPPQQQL
T8 sequence (Q8NB78 whole entry): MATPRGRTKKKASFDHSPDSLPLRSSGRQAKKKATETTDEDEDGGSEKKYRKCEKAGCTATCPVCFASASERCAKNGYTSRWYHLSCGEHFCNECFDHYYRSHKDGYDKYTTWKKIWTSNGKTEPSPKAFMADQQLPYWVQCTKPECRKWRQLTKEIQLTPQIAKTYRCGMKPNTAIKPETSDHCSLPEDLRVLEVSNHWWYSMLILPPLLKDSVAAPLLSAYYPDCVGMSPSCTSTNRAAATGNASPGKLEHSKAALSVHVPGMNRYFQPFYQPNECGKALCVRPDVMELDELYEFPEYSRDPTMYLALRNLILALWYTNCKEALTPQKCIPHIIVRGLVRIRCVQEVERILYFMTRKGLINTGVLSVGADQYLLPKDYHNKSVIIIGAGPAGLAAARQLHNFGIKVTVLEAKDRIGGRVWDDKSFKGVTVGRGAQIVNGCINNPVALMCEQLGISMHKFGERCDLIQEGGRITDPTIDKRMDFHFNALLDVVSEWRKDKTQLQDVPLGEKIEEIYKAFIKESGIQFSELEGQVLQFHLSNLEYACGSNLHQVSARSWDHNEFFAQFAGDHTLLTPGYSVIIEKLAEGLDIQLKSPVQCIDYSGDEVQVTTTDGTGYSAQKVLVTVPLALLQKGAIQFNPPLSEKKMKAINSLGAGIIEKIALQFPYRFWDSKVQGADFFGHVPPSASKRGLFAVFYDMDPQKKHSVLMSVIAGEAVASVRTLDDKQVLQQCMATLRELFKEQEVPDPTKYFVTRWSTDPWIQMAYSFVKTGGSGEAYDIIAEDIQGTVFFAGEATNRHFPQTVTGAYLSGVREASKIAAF

As to `COc1cc2nc(-c3cc(C)oc3C)cc(NCC3CCN(c4ncc(C(=O)NO)cn4)CC3)c2cc1OC` [CM-1758, 2-[4-[[[2-(2,5-dimethyl-3-furyl)-6,7-dimethoxy-4-quinolyl]amino]methyl] -1-piperidyl]pyrimidine-5-carbohydroxamic acid], the inhibition at 10 µM on EZH2 (P132S) was determined as 0%; against EZH2 (Y641C) it was 0%; at FBXL10, 34%; against GLP, 7%; at JHDM1D, 37%; at JMJD2A, 20%. Further, the inhibition at 10 µM against Jarid1C turned out to be 26%; against LSD2, 22%; at PHF8, 12%; against PRMT3, 0%; on PRMT6, 0%; against SETDB1 it was 3%. The inhibition at 10 µM at SIRT2 was determined as 0%.
Consider `COc1cc2nc(-c3ccc(C)o3)cc(NCC3CCN(c4ncc(C(=O)NO)cn4)CC3)c2cc1OC` [CM-444, 2-[4-[[[6,7-dimethoxy-2-(5-methyl-2-furyl)-4-quinolyl]amino]methyl]-1-piperidyl]pyrimidine-5-carbohydroxamic acid], for which the inhibition at 10 µM at EZH2 (P132S) turned out to be 0%; against EZH2 (Y641C), 4%; against FBXL10 it was 58%; against GLP, 0%; against JHDM1D, 4%; at JMJD2A, 21%. Also, the inhibition at 10 µM against Jarid1C amounted to 2%; against LSD2, 21%; at PHF8 it was 6%; against PRMT3, 0%; against PRMT6 it was 0%; at SETDB1, 0%. On SIRT2, the inhibition at 10 µM came to 14%. Also, on FBXL10, the IC50 was found to be 6.7 µM.
